Data taken from patent publication EP1004309A1, “ISRAPAFANT-CONTAINING WATER-BASE PREPARATIONS” (Senju Pharmaceutical Co., Ltd., priority 1997, dated 1998).
≈ marks a conversion by molar mass, not a printed value. Entries after “also recorded” stand apart in the source; their conditions may differ.

Experiments:
[1] = Solubility in water; assay type: physicochemical; conditions: water at 25°C
[2] = test system: rat PAF conjunctivitis; assay: Rat PAF conjunctivitis, conjunctival dye-leakage after eye drop; assay type: in vivo; conditions: for inhibition: dye leakage; for amount of dye leakage: instillation 5 µl at 1, 2 hours before PAF, mean±standard error
Protocol: Male Wistar rats weighing about 130 g purchased from Clea Japan, Inc. were used. They were bred at temperature 23±2°C and humidity 55±15%.
Israpafant was suspended at 0.03, 0.1, 0.3 and 1.0%. Physiological saline was used for the control group.
The formulation of the vehicle for an israpafant eye drop was as shown below, wherein the pH of the eye drop at each concentration was 7.0.
PAF diluted to 4 µg/ml was administered to the upper subconjunctiva of the rat by 25 µl and at the same time, 0.5% Evans' blue (0.5 ml) was intravenously administered. Thirty minutes later, the dye-leakage part of the conjunctiva was excised and the dye was extracted with formamide, after which absorbance (625 nm) was measured. The test drug was administered by instillation (5 µl) to the eye at 1, 2 hours before subconjunctival induction of PAF.

[3] = test system: guinea pig active sensitization allergic conjunctivitis; assay: Suppressive effect against eosinophil infiltration into conjunctiva (late phase reaction); assay type: in vivo
Protocol: (§1) Male Hartley guinea pigs weighing about 300 g purchased from Japan SLC. Ltd. were used. These animals had free access to a solid feed (γ ray irradiated feed LRC4, ORIENTAL YEAST CO., LTD.) and tap water, and were bred in a breeding chamber set to a temperature 23 ±2°C and humidity 55±15%.
(§2) Israpafant (manufactured by Yoshitomi Pharmaceutical Industries, Ltd.) was suspended in a vehicle (pH 5) shown below at a concentration of 1% to give an eye drop suspension. In addition, a suspension of israpafant in 0.5% CMC at 10 mg/ml was prepared for oral administration. As a control, physiological saline was used.
In the same manner as in 1), sensitization and induction by first challenge and second challenge were performed.
The drug was evaluated by removing the eye ball at 6 hours after the second challenge, preparing an optical microscopic specimen according to a conventional method, staining eosinophils by Luna staining, and counting and averaging the number of eosinophils infiltrated into conjunctiva with regard to each of 6 visible areas (one visible area being 0.04 mm^2) of the vicinity of conjunctival lymphoid tissue. The drug was administered in the same manner as in 1).
(§3) • physiological saline (control group) • 1.0% israpafant (instillation group) • 10 mg/kg israpafant p.o. (oral group) • 1 mg/kg mepyramine i.v. (intravenous injection group) • 1.0% israpafant + 1 mg/kg mepyramine i.v. (concurrent instillation group) • 10 mg/kg israpafant p.o.+1 mg/kg mepyramine i.v. (concurrent instillation group)

[4] = test system: guinea pig active sensitization allergic conjunctivitis; assay: Suppressive effect against promotion of conjunctival vascular permeability (early phase reaction), dye-leakage; assay type: in vivo; conditions: 30 minutes after second challenge
Protocol: as §1, §2
Guinea pigs were sensitized with a dispersion of 10 µg ovalbumin (OA) and 30 mg aluminum hydroxide gel by peritoneal administration. At 14 days after the sensitization, a 2.5% OA antigen solution was instilled into the both eyes by 10 µl to induce allergic conjunctivitis (first challenge). At 20 minutes after the last challenge, conjunctivitis signs were observed and the animals were grouped in such a manner that the severity of the condition was equalized from the degrees of chemosis, conjunctival injection and tearing.
The evaluation of a drug included the following steps. At 24 hours from the first challenge, 10 mg/kg Evans' blue was intravenously administered, and a 2.5% OA antigen solution was instilled into the both eyes by 10 µl to again induce conjunctivitis (the second challenge). Thirty minutes later, conjunctival dye-leakage part was excised, the parts of the both eyes were combined and the amount of the leaked dye was measured. The drug was instilled into the both eyes by 10 µl at 3, 2, 1 hour before the second challenge in the case of administration by instillation. In the case of an oral administration, 10 mg/kg was administered once at 1 hour before the second challenge. For suppression of histamine reaction, 1 mg/kg of mepyramine was intravenously administered one minute before.
as §3

[5] = Dissolution test: solubility of israpafant in aqueous solutions containing additives, by HPLC; assay type: physicochemical; conditions: for solubility: 0.1% phosphate buffer with dissolved additive, 25 °C, pH 7, aqueous with cosolvent or surfactant or cyclodextrin, thermodynamic from solid
Protocol: In 0.1% phosphate buffer (pH 7) were dissolved the additives shown in Table 2 in a proportion of 0.5% (0.5% and 4% in the sole case of polysorbate). In the same manner as above, israpafant was suspended and dissolved, after which the solubility of israpafant was measured by HPLC.
(§4) • column: YMC AM-302 (4.6×150 mm) • mobile phase: acetonitrile:0.1M ammonium acetate-87:13 • detection: UV 244 nm • column temperature:35°C • flow rate: 0.7 ml/min • internal standard:1,3,5-triphenylbenzene

[6] = Dissolution test: solubility of israpafant in buffers, by HPLC; assay type: physicochemical; conditions: 0.1% acetate, phosphate and borate buffers, 25 °C, aqueous buffer, thermodynamic from solid; each buffer (pH 4, 5, 6, 7, 8 and 9); below detection limit by HPLC
Protocol: Israpafant (manufactured by Yoshitomi Pharmaceutical Industries, Ltd.) was suspended in 0.1% acetate buffer (pH 4, 5, 6), phosphate buffer (pH 6, 7, 8) and borate buffer (pH 8, 9) in a concentration of 0.1% (w/v%, hereinafter the same). Each suspension was filled in a glass ampoule by 5 ml and shaken at 25°C overnight (ca. 15 hours). After passing through a 0.45 µm membrane filter, the solubility of israpafant was measured by HPLC.
as §4

[7] = test system: guinea pig active sensitization allergic conjunctivitis; assay: Suppressive effect against immediate allergic conjunctivitis signs (early phase reaction), total score; assay type: in vivo; conditions: 1% israpafant instillation 10 µl one eye at 2, 4, 8 hours after first challenge and 3, 2, 1 hour before second challenge; 20 minutes after second challenge; versus physiological saline control
Protocol: as §1, §2
In the same manner as in 1), sensitization and induction by the first challenge and the second challenge were performed. […]

Cc1nnc2n1-c1sc(CCc3ccc(CC(C)C)cc3)cc1C(c1ccccc1Cl)=NC2C (stereo not drawn) [israpafant, 4-(2-Chlorophenyl)-2-[2-(4-isobutylphenyl)ethyl]-6,9-dimethyl-6H-thieno[3,2-f][1,2,4]triazolo[4,3-a][1,4]diazepine]
solubility in water [1]: less than 0.01 w/v% | inhibition ([2]; eye drop suspension 0.03% (dose 3 µg)): 19.1% | inhibition ([2]; eye drop suspension 0.1% (dose 10 µg)): 29.6% | inhibition ([2]; eye drop suspension 0.3% (dose 30 µg)): 41.6% | inhibition ([2]; eye drop suspension 1.0% (dose 100 µg)): 53.2% | amount of dye leakage ([2]; eye drop suspension 0.03% (dose 3 µg), saline 40.03±2.57): 32.29±3.31 µg/site | amount of dye leakage ([2]; eye drop suspension 0.1% (dose 10 µg), p<0.01): 28.17±1.42 µg/site | amount of dye leakage ([2]; eye drop suspension 0.3% (dose 30 µg), p<0.01): 23.37±2.56 µg/site | amount of dye leakage ([2]; eye drop suspension 1.0% (dose 100 µg), p<0.01): 18.74±2.20 µg/site | suppressive effect on eosinophil infiltration (in words) ([3]; 10 mg/kg israpafant p.o. (oral group), 6 hours after second challenge): no suppressive effect; also recorded: no effect was found; also recorded: no effect was observed | suppressive effect on eosinophil infiltration (in words) ([3]; 10 mg/kg israpafant p.o. + 1 mg/kg mepyramine i.v. (concurrent oral administration group), almost the same as mepyramine alone): suppressive effect | suppressive effect on eosinophil infiltration (in words) ([3]; 1.0% israpafant instillation + 1 mg/kg mepyramine i.v. (concurrent instillation group), almost the same as mepyramine alone): suppressive effect | eosinophil infiltration count ([3]; 1.0% israpafant instillation, 6 hours after second challenge, control 95.3): 71.8 cell/0.04 mm^2 | dye-leakage ([4]; 10 mg/kg israpafant p.o. + 1 mg/kg mepyramine i.v. (oral concurrent group)): 10.1 µg/two eye balls | dye-leakage ([4]; 10 mg/kg israpafant p.o. once 1 hour before second challenge, control 34.5 µg): 25.3 µg/two eye balls | dye-leakage ([4]; 1.0% israpafant eye drop suspension, instillation 10 µl both eyes at 3, 2, 1 hour before second challenge, control 34.5 µg): 24.7 µg/two eye balls | dye-leakage ([4]; 1.0% israpafant instillation + 1 mg/kg mepyramine i.v. (concurrent instillation group)): 11.0 µg/two eye balls | solubility ([5]; 0.5% BAK in 0.1% phosphate buffer (pH 7)): 99 µg/mL (≈ 202 µM) | solubility ([5]; 0.5% HCO60 in 0.1% phosphate buffer (pH 7)): 47.3 µg/mL (≈ 96.7 µM) | solubility ([5]; 0.5% HPMC in 0.1% phosphate buffer (pH 7)): 0.6 µg/mL (≈ 1.23 µM) | solubility ([5]; 0.5% PVA(EG40) in 0.1% phosphate buffer (pH 7)): 0.4 µg/mL (≈ 0.818 µM) | solubility ([5]; 0.5% SDS in 0.1% phosphate buffer (pH 7)): 1060 µg/mL (≈ 2160 µM) | solubility ([5]; 0.5% Tyloxapol in 0.1% phosphate buffer (pH 7)): 29.5 µg/mL (≈ 60.3 µM) | solubility ([5]; 0.5% polysorbate 80 in 0.1% phosphate buffer (pH 7)): 66.9 µg/mL (≈ 137 µM) | solubility ([5]; polysorbate 80 (4% aq. solution) in 0.1% phosphate buffer (pH 7)): 581 µg/mL (≈ 1190 µM) | dissolution (in words) ([5]; 0.5% aqueous sodium dodecylsulfate solution): dissolved extremely well | dissolution (in words) ([5]; 4% aqueous polysorbate solution): dissolved extremely well | dissolution (in words) ([5]; aqueous solution containing a water soluble polymer or cyclodextrin): did not dissolve | dissolution (in words) ([5]; aqueous surfactant solution): dissolved well | solubility [6]: < 0.05 µg/mL | total score of conjunctivitis signs [7]: significant decrease

COc1ccc(CN(CCN(C)C)c2ccccn2)cc1 [mepyramine, reference compound]
suppressive effect on eosinophil infiltration (in words) ([3]; 1 mg/kg mepyramine i.v., 6 hours after second challenge): suppressive effect | dye-leakage ([4]; 1 mg/kg mepyramine i.v. one minute before, control 34.5 µg): 17.5 µg/two eye balls
